# Results: patent publication US20250052985A1, “SYSTEM AND METHOD FOR QUANTITATIVE PHASE IMAGING FOR MULTI-PARAMETRIC SCREENING OF TUMOR THERAPY RESPONSE” (UNIVERSITY OF UTAH RESEARCH FOUNDATION, priority 2023, published 2025)
# Several values for one entry are separate records, joined by “and”; a condition that tells them apart may be missing. Identical values can stand only once.
# Tests used:
# MDA-MB-231 cells = test: Quantitative phase imaging (QPI) growth response, MDA-MB-231; assay type: cell-based; set-up: DoR QPI: scale not given here; ToR 20 μM: unit not given here
# From the text: (§1) In some embodiments, breast cancer cell lines are imaged, representing diverse clinical subtypes, summarized in Table 2 below, using a QPI microscope (FIG. 1A) based on differential phase contrast (DPC) microscopy and phase reconstruction via a QPI microscope system. DPC is used for image acquisition and phase reconstruction because DPC's flexible design may be customized for high throughput phase measurements. […] As illustrated in the embodiment of FIG. 1A, a QPI microscope system 100 conducts assays in a 96-well plate (e.g., a well-plate 105) with 6-point dose response curves and up to five therapies in triplicate including solvent controls, summarized in Table 4 below. As described below, in reference to FIG. 1A, a growth response of cells is measured noninvasively using QPI via a QPI microscope system 110 before being assayed using a CTG reader 115.
# (§2) FIG. 1B illustrates a timeline plot 200 showing two plates (e.g., two, separate well-plates 105) set up in parallel to measure cell viability. With reference to FIG. 1B, two plates are set-up simultaneously for each experiment. A first plate 205 is incubated for 27 hours (h) post drug exposure prior to CTG analysis (3 h equilibration+24 h of imaging), which measures cell adenosine triphosphate (ATP) content as a surrogate for cell viability. A second plate 210 is imaged for 72 h after 3 h equilibration (e.g., 75 h) and followed by CTG. […] The imaging locations are imaged for 72 h, as shown by images 1700-1715 of FIG. 7.
# (§3) In some embodiments, a dose-dependent change in growth, as indicated by a change in the rate of mass accumulation or loss, is a parameter that can be extracted from QPI dose-response data. […] Individual specific growth rate measurements are indicated by points in the distribution of the graph 1200 of FIG. 2A. Blue is indicative of the DMSO control and red is indicative of doxorubicin. The black outline is a kernel density function fit to the distribution of specific growth rates for each condition (e.g., *p<0.05, **p<0.01). In some embodiments, the average SGR of each condition is fit to a sigmoid dose-response curve using a Hill equation. For example, computed logistic fit parameters using a 4-parameter Hill model via the QPI microscope system 110 for all conditions are summarized in Tables 5-8 below. To determine if there is a response, as illustrated by FIG. 2B, the QPI microscope system 110 tests goodness of fit, adjusts for degrees of freedom using an F-test at significance p<0.01 by comparison to a flat line, as an indicator of no response. For cases with a better fit to the Hill equation, the 4-parameter Hill curve may be used by the QPI microscope system 110 to determine the EC50, a measure of sensitivity to therapy because it represents the effective concentration at which 50% of the cells respond to therapy, as illustrated by FIG. 10. […] A 4-parameter Hill curve is fit to each dose response plot to extract the depth of response and EC50 for each cell/drug pair. A flat line represents no response due to failure of the F-test to reject the null hypothesis that the logistic fit is indistinguishable from a flat line. […] Each color indicates a different drug or therapy used.
# BT-474 cells [1] = test: cells; details: for ToR 20 μM: time of response at 20 μM; for Hill Slope: BT-474, Hill fit; for EC50: Homo sapiens
# From the text: as §1, §2, §3
# MCF-7 cells [2] = test: cells; details: for Max Asymptote / Min Asymptote: MCF-7, 4-parameter Hill fit of mean SGR vs concentration, one line per replicate; for Hill Slope: MCF-7, Hill fit; for DoR QPI: depth of response; for ToR 20 μM: time of response at 20 μM
# From the text: as §1, §2, §3
# MCF-7 cells [3] = test: CellTiter-Glo (CTG) ATP viability assay, MCF-7; assay type: cell-based
# Protocol: (§4) CTG (e.g., read by the CTG reader 115) is a cell viability assay that quantifies the amount of ATP present at the end of an experiment as an indicator of the number of live cells. The electronic controller 155 measures ATP content in each condition as a readout by a luminescent signal, which is normalized by the luminescence of the control (e.g., a control well) to determine cell viability relative to on-plate controls. In some embodiments, the CTG assay is performed by first removing 100 μL of media from each well on the well-plate 105, which is then replaced with an equal amount of CellTiter-Glo reagent (e.g., Promega, G7572). Assayed plates may be shaken at 500 RPM for 20 minutes and allowed to rest for 10 minutes. In some instances, 100 μL of volume from each well is transferred to a white 96-well plate (e.g., Perkin Elmer, 6005680). The electronic controller 155 collects luminescence data from each well using an Envision plate reader (e.g., Perkin Elmer) and normalized against the solvent control to measure ATP content. The electronic controller 155 fits a 4-parameter hill curve to the dose response to determine the EC50 and depth of response.
# BT-474 cells [4] = test: CellTiter-Glo (CTG) ATP viability assay, BT-474; assay type: cell-based; details: for Min Asymptote: BT-474, Hill fit of luminescence normalized to solvent control, one line per replicate; for EC50: Homo sapiens
# Protocol: as §4
# [5] = test system: primary tumor cells (Patient #1); test: QPI on primary cells after two-week expansion, Patient #1; assay type: cell-based
# Protocol: In some embodiments, the QPI microscope system 110 applies multiparametric QPI to primary cells from two clinical samples stored in cell bank at, for example, the Huntsman Cancer Institute plated after thawing from liquid nitrogen and CD45+ depleted to reduce the number of immune cells, as shown in FIG. 26.
# For example, the primary cells are plated as a 2D monolayer in Clever's complete medium in a 96 well plate (e.g., the well-plate 105) and are allowed to acclimate to cell culture conditions for 18 h prior to dosing with treatments assigned to each patient by a physician. […] The image 3600 is a QPI image of primary cells from a direct from thaw patient derived sample. […] The graph 3610 is a histogram of cell mass used to computationally filter, using the electronic controller 155, for low mass cells (shown in red in the image 3600 and the graph 3605). By using a cutoff between the peaks at, for example, 72 pg, low mass cells can be isolated that are not growing and remove such cells from analysis. […] Using this cutoff, the electronic controller 155 measures the dose response for cells in each condition to determine the EC50 and DoR for each condition studied for the primary cells, as shown in the graph 3615. The graph 3615 is a dose response plot for primary cells treated with therapies assigned to the patient by a physician. […] In some embodiments, the electronic controller 155 determines a drug response in cells from patient derived samples. For example, the electronic controller 155 determines the drug response in therapy treatment samples from patient derived samples.
# In some embodiments, both samples are expanded from primary cells in 2D culture using optimized ex vivo culture conditions for 2 weeks, changing media every 3 days to further purify the tumor cells, as shown in a workflow 3700 of FIG. 27.
# [6] = 72 h QPI, MDA-MB-231, 4-parameter Hill fit of mean SGR vs concentration, one line per replicate
# [7] = 72 h QPI, BT-474, 4-parameter Hill fit of mean SGR vs concentration, one line per replicate
structure (smiles),measurement,setting,value
N.N.O=C([O-])C1(C(=O)[O-])CCC1.[Pt+2] [Carboplatin],Max Asymptote,MDA-MB-231 cells; [6],0.01609 and 0.02303 and 0.02092
same,Min Asymptote,MDA-MB-231 cells; [6],0.02861 and 0.03045 and 0.02714
same,growth rate and heterogeneity over time,"MDA-MB-231 cells; MDA-MB-231, 20 μM",decrease in growth rate with little effect on heterogeneity relative to the control
same,growth rate and heterogeneity as concentration increases,"MDA-MB-231 cells; MDA-MB-231, FIG. 22",decrease in growth rate and heterogencity simultaneously
same,EC50,"MDA-MB-231 cells; MDA-MB-231 cell line, QPI growth rate, read-out: EC50, QPI",9.1 µM
same,DoR QPI,"MDA-MB-231 cells; MDA-MB-231 cell line, depth of response, QPI",0.3
same,ToR 20 μM,"MDA-MB-231 cells; MDA-MB-231 cell line, time of response at 20 μM",18.3
same,ToR 20 μM,BT-474 cells [1]; BT-474 cell line,38.7
same,Max Asymptote,MCF-7 cells [2]; 72 h QPI,0.007047 and 0.01142
same,Min Asymptote,MCF-7 cells [2]; 72 h QPI,0.01994 and 0.02292
same,Hill Slope,MCF-7 cells [2]; 72 h QPI,3.7715 and 2.34
same,DoR QPI,MCF-7 cells [2]; MCF-7 cell line,0.6
same,ToR 20 μM,MCF-7 cells [2]; MCF-7 cell line,18.1
same,EC50,"MCF-7 cells [2]; read-out: EC50, QPI, MCF-7 cell line, QPI growth rate",14.2 µM
same,Hill Slope,"MCF-7 cells [3]; 72 h CTG, MCF-7, Hill fit",3.126 and 5.114
same,log10(EC50),"MCF-7 cells [3]; 72 h CTG, MCF-7, Hill fit",−1.201 and −1.172
same,Min Asymptote,"MCF-7 cells [3]; 72 h CTG, MCF-7, Hill fit of luminescence normalized to solvent control, one line per replicate",0.5048 (2×) and 0.6498
same,EC50,"MCF-7 cells [3]; MCF-7 cell line, CellTiter-Glo, read-out: EC50, CTG (converted)",15.5 µM
same,DoR CTG,"MCF-7 cells [3]; MCF-7 cell line, depth of response, CellTiter-Glo",0.4
CS(=O)(=O)CCNCc1ccc(-c2ccc3ncnc(Nc4ccc(OCc5cccc(F)c5)c(Cl)c4)c3c2)o1 [Lapatinib],type of response (cytostatic/cytotoxic),BT-474 cells [1],cytotoxic response
same,Max Asymptote,"BT-474 cells [1]; 24 h QPI, BT-474, 4-parameter Hill fit of mean SGR vs concentration, one line per replicate",0.009114 and 0.01239 and 0.01012
same,Hill Slope,BT-474 cells [1]; 24 h QPI,1.0728 and 1.0622 and 0.7683
same,Max Asymptote,BT-474 cells [1]; [7],−0.005233 and −0.002968 and −0.002717
same,Min Asymptote,BT-474 cells [1]; [7],0.008681 and 0.009519 and 0.009646
same,Hill Slope,BT-474 cells [1]; 72 h QPI,0.8265 and 1.1159 and 1.0735
same,growth rate and heterogeneity as concentration increases,"BT-474 cells [1]; BT-474, FIG. 22",decrease in growth rate and heterogeneity
same,DoR QPI,"BT-474 cells [1]; BT-474 cell line, depth of response, QPI",1.4
same,ToR 20 μM,BT-474 cells [1]; BT-474 cell line,−1.0616
same,ToR faster than in MCF-7,BT-474 cells [1]; BT-474 vs MCF-7,60 h
same,decrease in heterogeneity relative to MCF-7,BT-474 cells [1]; BT-474 vs MCF-7,30%
same,EC50,"BT-474 cells [1]; BT-474, BT-474, QPI",~1.5 µM
same,EC50,"BT-474 cells [1]; BT-474, read-out: EC50, QPI, BT-474 cell line, QPI growth rate",1.6 µM
same,EC50,"BT-474 cells [1]; BT-474, read-out: EC50, SD, BT-474 cell line, EC50 of the standard deviation",1.65 µM
same,type of response (cytostatic/cytotoxic),MCF-7 cells [2],cytostatic response
same,Max Asymptote,MCF-7 cells [2]; 24 h QPI,0.02919
same,Min Asymptote,MCF-7 cells [2]; 24 h QPI,0.0206
same,Hill Slope,MCF-7 cells [2]; 24 h QPI,1.4871
same,Max Asymptote,MCF-7 cells [2]; 72 h QPI,0.01659
same,Min Asymptote,MCF-7 cells [2]; 72 h QPI,0.02661
same,Hill Slope,MCF-7 cells [2]; 72 h QPI,1.4826
same,EC50,"MCF-7 cells [2]; Homo sapiens, MCF7, 24 h, read-out: log10(EC50), 24 h QPI, MCF-7, Hill fit (converted), EC50 in μM per Table 1",1.92 µM
same,EC50,"MCF-7 cells [2]; Homo sapiens, MCF7, 72 h, read-out: log10(EC50), 72 h QPI, MCF-7, Hill fit (converted), EC50 in μM per Table 1",1.8 µM
same,EC50,"MCF-7 cells [2]; Homo sapiens, MCF7, MCF-7, QPI",~1.5 µM
same,EC50,"MCF-7 cells [2]; Homo sapiens, MCF7, read-out: EC50, QPI, MCF-7 cell line, QPI growth rate",1.5 µM
same,DoR QPI,MCF-7 cells [2]; MCF-7 cell line,0.4
same,ToR 20 μM,MCF-7 cells [2]; MCF-7 cell line,38.2
same,Hill Slope,"BT-474 cells [4]; 24 h CTG, BT-474, Hill fit",0.4575
same,Min Asymptote,BT-474 cells [4]; 24 h CTG,0.2926
same,Hill Slope,"BT-474 cells [4]; 72 h CTG, BT-474, Hill fit",0.6736 and 1.021
same,log10(EC50),"BT-474 cells [4]; 72 h CTG, BT-474, Hill fit",0.04318
same,Min Asymptote,BT-474 cells [4]; 72 h CTG,0.3102 and 0.4062 (2×)
same,DoR CTG,"BT-474 cells [4]; BT-474 cell line, depth of response, CellTiter-Glo",0.6
same,EC50,"BT-474 cells [4]; BT-474, 24 h, 24 h CTG, BT-474, Hill fit, read-out: log10(EC50) (converted)",165 µM
same,EC50,"BT-474 cells [4]; BT-474, BT-474 cell line, CellTiter-Glo, read-out: EC50, CTG",1.7 µM
C=C1C[C@@H]2CC[C@@]34C[C@H]5O[C@H]6[C@@H](O3)[C@H]3O[C@H](CC[C@@H]3O[C@H]6[C@H]5O4)CC(=O)C[C@@H]3[C@@H](OC)[C@@H](C[C@H](O)CN)O[C@H]3C[C@H]3O[C@@H](CC[C@@H]1O2)C[C@@H](C)C3=C [eribulin],overall response relative to doxorubicin or gemcitabine,"[5]; Patient #1, concentration just above the EC50, normalized mass over time",lesser overall response
same,DoR relative to the other therapies tested,"[5]; Patient #1, dose response plots",lower DoR
same,growth rate after the first day,"[5]; Patient #1, rest of the experiment",approximately 0.0012 h−1
Nc1ccn([C@@H]2O[C@H](CO)[C@@H](O)C2(F)F)c(=O)n1 [gemcitabine],EC50 compared with eribulin,[5]; Patient #1,lower EC50 than eribulin
